Where only a bound is given, the exact number is not on record here.

The test system of the experiment is HepG2. Description: Induction of apoptosis in human HepG2 cells assessed as apoptotic cells at 50 uM by Annexin V-FITC/propidium iodide staining based flow cytometry relative to control. Type of experiment: functional.
On to `C[C@H]1/C=C/C[C@H](Br)[C@@H]2C[C@@H](Cl)[C@@H](C[C@H](C=C=CBr)O1)O2`, for which the Activity came to 47%. To `C[C@@H]1O[C@@H](C=C=CBr)C[C@H]2O[C@@H](C[C@H]2Cl)[C@@H](Br)C[C@H]2O[C@H]12` belongs >65%; to `C[C@@H]1O[C@@H](C=C=CBr)C[C@H]2O[C@@H](C[C@H]2Cl)[C@@H](Br)C[C@@H]2O[C@@H]12`, >70%.
